Data taken from patent US20220169628A1 (University of Florida Research Foundation, Incorporated, priority 2019, published 2022).

How the values were obtained:
RS4;11 cells = test: Cell viability assay, MTS, 48 h, RS4;11; format: cell-based; details: Homo sapiens, RS4-11, 48 h, 48 hours, read-out: IC50 (48 hours) RS4;11
Method: (§1) Acute lymphoblastic leukemia cells (MOLT-4 and RS4; 11) or small cell lung cancer (NCI-H146 or simply H146) were incubated with increasing concentrations of Bcl-xL degraders for 48 h. Cell viability was measured by tetrazolium-based MTS assay.

MOLT-4 cells = test: Cell viability assay, MTS, 48 h, MOLT-4; format: cell-based; details: Homo sapiens, MOLT-4, 48 h, 48 hours, read-out: IC50 (48 hours) MOLT-4
Method: as §1

SMILES: Cc1ncsc1-c1ccc([C@H](C)NC(=O)[C@@H]2C[C@@H](O)CN2C(=O)[C@@H](NC(=O)CCCCCC#CC#CC2(C)CCC(c3ccc(Cl)cc3)=C(CN3CCN(c4ccc(C(=O)NS(=O)(=O)c5ccc(N[C@H](CCN6CCOCC6)CSc6ccccc6)c(S(=O)(=O)C(F)(F)F)c5)cc4)CC3)C2)C(C)(C)C)cc1 (stereo partly drawn) [degrader #12, (2S,4R)-1-((2S)-2-(10-(4′-chloro-4-methyl-6-((4-(4-(((4-(((R)-4-morpholino-1-(phenylthio)butan-2-yl)amino)-3-((trifluoromethyl)sulfonyl)phenyl)sulfonyl)carbamoyl)phenyl)piperazin-1-yl)methyl)-2,3,4,5-tetrahydro-[1,1′-biphenyl]-4-yl)deca-7,9-diynamido)-3,3-dimethylbutanoyl)-4-hydroxy-N—((S)-1-(4-(4-methylthiazol-5-yl)phenyl)ethyl)pyrrolidine-2-carboxamide]
- IC50 (RS4;11 cells): > 500 nM
- IC50 (MOLT-4 cells): > 500 nM

SMILES: Cc1ncsc1-c1ccc([C@H](C)NC(=O)[C@@H]2C[C@@H](O)CN2C(=O)[C@@H](NC(=O)CCCC(=O)N2CCN(CC3(C)CCC(c4ccc(Cl)cc4)=C(CN4CCN(c5ccc(C(=O)NS(=O)(=O)c6ccc(N[C@H](CCN7CCOCC7)CSc7ccccc7)c(S(=O)(=O)C(F)(F)F)c6)cc5)CC4)C3)CC2)C(C)(C)C)cc1 (stereo partly drawn) [degrader #14, (2S,4R)-1-((2S)-2-(5-(4-((4′-chloro-4-methyl-6-((4-(4-(((4-(((R)-4-morpholino-1-(phenylthio)butan-2-yl)amino)-3-((trifluoromethyl)sulfonyl)phenyl)sulfonyl)carbamoyl)phenyl)piperazin-1-yl)methyl)-2,3,4,5-tetrahydro-[1,1′-biphenyl]-4-yl)methyl)piperazin-1-yl)-5-oxopentanamido)-3,3-dimethylbutanoyl)-4-hydroxy-N—((S)-1-(4-(4-methylthiazol-5-yl)phenyl)ethyl)pyrrolidine-2-carboxamide]
- IC50 (RS4;11 cells): 50 to 150 nM
- IC50 (MOLT-4 cells): 150 to 500 nM

SMILES: Cc1ncsc1-c1ccc([C@H](C)NC(=O)[C@@H]2C[C@@H](O)CN2C(=O)[C@@H](NC(=O)CCCCC(=O)N2CCN(CC3(C)CCC(c4ccc(Cl)cc4)=C(CN4CCN(c5ccc(C(=O)NS(=O)(=O)c6ccc(N[C@H](CCN7CCOCC7)CSc7ccccc7)c(S(=O)(=O)C(F)(F)F)c6)cc5)CC4)C3)CC2)C(C)(C)C)cc1 (stereo partly drawn) [degrader #15, (2S,4R)-1-((2S)-2-(6-(4-((4′-chloro-4-methyl-6-((4-(4-(((4-(((R)-4-morpholino-1-(phenylthio)butan-2-yl)amino)-3-((trifluoromethyl)sulfonyl)phenyl)sulfonyl)carbamoyl)phenyl)piperazin-1-yl)methyl)-2,3,4,5-tetrahydro-[1,1′-biphenyl]-4-yl)methyl)piperazin-1-yl)-6-oxohexanamido)-3,3-dimethylbutanoyl)-4-hydroxy-N—((S)-1-(4-(4-methylthiazol-5-yl)phenyl)ethyl)pyrrolidine-2-carboxamide]
- IC50 (RS4;11 cells): 50 to 150 nM
- IC50 (MOLT-4 cells): 50 to 150 nM

SMILES: Cc1ncsc1-c1ccc([C@H](C)NC(=O)[C@@H]2C[C@@H](O)CN2C(=O)[C@@H](NC(=O)CCCCCC(=O)N2CCN(CC3(C)CCC(c4ccc(Cl)cc4)=C(CN4CCN(c5ccc(C(=O)NS(=O)(=O)c6ccc(N[C@H](CCN7CCOCC7)CSc7ccccc7)c(S(=O)(=O)C(F)(F)F)c6)cc5)CC4)C3)CC2)C(C)(C)C)cc1 (stereo partly drawn) [degrader #16, (2S,4R)-1-((2S)-2-(7-(4-((4′-chloro-4-methyl-6-((4-(4-(((4-(((R)-4-morpholino-1-(phenylthio)butan-2-yl)amino)-3-((trifluoromethyl)sulfonyl)phenyl)sulfonyl)carbamoyl)phenyl)piperazin-1-yl)methyl)-2,3,4,5-tetrahydro-[1,1′-biphenyl]-4-yl)methyl)piperazin-1-yl)-7-oxoheptanamido)-3,3-dimethylbutanoyl)-4-hydroxy-N—((S)-1-(4-(4-methylthiazol-5-yl)phenyl)ethyl)pyrrolidine-2-carboxamide]
- IC50 (RS4;11 cells): < 50 nM
- IC50 (MOLT-4 cells): < 50 nM

SMILES: Cc1ncsc1-c1ccc([C@H](C)NC(=O)[C@@H]2C[C@@H](O)CN2C(=O)[C@@H](NC(=O)CCCCCCC(=O)N2CCN(CC3(C)CCC(c4ccc(Cl)cc4)=C(CN4CCN(c5ccc(C(=O)NS(=O)(=O)c6ccc(N[C@H](CCN7CCOCC7)CSc7ccccc7)c(S(=O)(=O)C(F)(F)F)c6)cc5)CC4)C3)CC2)C(C)(C)C)cc1 (stereo partly drawn) [degrader #17, (2S,4R)-1-((2S)-2-(8-(4-((4′-chloro-4-methyl-6-((4-(4-(((4-(((R)-4-morpholino-1-(phenylthio)butan-2-yl)amino)-3-((trifluoromethyl)sulfonyl)phenyl)sulfonyl)carbamoyl)phenyl)piperazin-1-yl)methyl)-2,3,4,5-tetrahydro-[1,1′-biphenyl]-4-yl)methyl)piperazin-1-yl)-8-oxooctanamido)-3,3-dimethylbutanoyl)-4-hydroxy-N—((S)-1-(4-(4-methylthiazol-5-yl)phenyl)ethyl)pyrrolidine-2-carboxamide]
- IC50 (RS4;11 cells): < 50 nM
- IC50 (MOLT-4 cells): < 50 nM

SMILES: Cc1ncsc1-c1ccc([C@H](C)NC(=O)[C@@H]2C[C@@H](O)CN2C(=O)[C@@H](NC(=O)CCCCCCCC(=O)N2CCN(CC3(C)CCC(c4ccc(Cl)cc4)=C(CN4CCN(c5ccc(C(=O)NS(=O)(=O)c6ccc(N[C@H](CCN7CCOCC7)CSc7ccccc7)c(S(=O)(=O)C(F)(F)F)c6)cc5)CC4)C3)CC2)C(C)(C)C)cc1 (stereo partly drawn) [degrader #18, (2S,4R)-1-((2S)-2-(9-(4-((4′-chloro-4-methyl-6-((4-(4-(((4-(((R)-4-morpholino-1-(phenylthio)butan-2-yl)amino)-3-((trifluoromethyl)sulfonyl)phenyl)sulfonyl)carbamoyl)phenyl)piperazin-1-yl)methyl)-2,3,4,5-tetrahydro-[1,1′-biphenyl]-4-yl)methyl)piperazin-1-yl)-9-oxononanamido)-3,3-dimethylbutanoyl)-4-hydroxy-N—((S)-1-(4-(4-methylthiazol-5-yl)phenyl)ethyl)pyrrolidine-2-carboxamide]
- IC50 (RS4;11 cells): < 50 nM
- IC50 (MOLT-4 cells): < 50 nM

SMILES: Cc1ncsc1-c1ccc([C@H](C)NC(=O)[C@@H]2C[C@@H](O)CN2C(=O)[C@@H](NC(=O)CCCCCCCCC(=O)N2CCN(CC3(C)CCC(c4ccc(Cl)cc4)=C(CN4CCN(c5ccc(C(=O)NS(=O)(=O)c6ccc(N[C@H](CCN7CCOCC7)CSc7ccccc7)c(S(=O)(=O)C(F)(F)F)c6)cc5)CC4)C3)CC2)C(C)(C)C)cc1 (stereo partly drawn) [degrader #19, (2S,4R)-1-((2S)-2-(10-(4-((4′-chloro-4-methyl-6-((4-(4-(((4-(((R)-4-morpholino-1-(phenylthio)butan-2-yl)amino)-3-((trifluoromethyl)sulfonyl)phenyl)sulfonyl)carbamoyl)phenyl)piperazin-1-yl)methyl)-2,3,4,5-tetrahydro-[1,1′-biphenyl]-4-yl)methyl)piperazin-1-yl)-10-oxodecanamido)-3,3-dimethylbutanoyl)-4-hydroxy-N—((S)-1-(4-(4-methylthiazol-5-yl)phenyl)ethyl)pyrrolidine-2-carboxamide]
- IC50 (RS4;11 cells): 50 to 150 nM
- IC50 (MOLT-4 cells): 50 to 150 nM
